Measurements taken from ChEMBL document CHEMBL1201862, “PubChem BioAssay data set” (2004).
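Step 1: Grow cells in 96-well plates. Step 2: Expose to compound for 48 hours at 5 concentrations. Step 3: Interpolate endpoints linearly; if unreached, use highest concentration. GI50 = concentration required for 50% inhibition of growth.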 The source made the active and inactive calls. No stated cut-off is given here; in the data, active = GI50 up to about 1.1 µM and inactive = higher. Where a SMILES comes first, the peptide text is derived from it. [ ]: non-standard residue; d: D form. The star is where a group is joined. Phe(4-NO2) = N[CH](Cc1ccc([N+](=O)[O-])cc1)C(=O)O; Cbz = O=C(OCc1ccccc1)*

Columns and labels:
Experiment in all cases: DTP human tumour cell line panel, 48 h
[1] = test system: EKVX
[2] = test system: HCT-116
[3] = test system: HCT-15
[4] = test system: IGROV-1
[5] = test system: KM12
[6] = test system: MCF7
[7] = test system: MDA-MB-435
[8] = test system: MOLT-4
[9] = test system: NCI-H226
[10] = test system: NCI-H23
[11] = test system: NCI-H522
[12] = test system: NCI/ADR-RES
[13] = test system: OVCAR-3
[14] = test system: SK-OV-3
[15] = test system: SNB-75
[16] = test system: SR
[17] = test system: UACC-257
[18] = test system: UACC-62
[19] = test system: HCC 2998
[20] = test system: HOP-92

SMILES | GI50 [1] | GI50 [2] | GI50 [3] [µM] | GI50 [4] | GI50 [5] | GI50 [6] | GI50 [7] | GI50 [8] | GI50 [9] | GI50 [10] | GI50 [11] | GI50 [12] | GI50 [13] | GI50 [14] | GI50 [15] | GI50 [16] | GI50 [17] | GI50 [18] | GI50 [19] | GI50 [20]
c1ccc2c(c1)-c1nc3ccccc3cc1C2N1CCOCC1 (centres undefined) | 63.1 µM (inactive) | > 100 µM (inactive) | > 100 | 79.4 µM (inactive) | > 100 µM (inactive) | > 100 µM (inactive) | > 100 µM (inactive) | 57.9 µM (inactive) | > 100 µM (inactive) | > 100 µM (inactive) | 43.5 µM (inactive) | 81.3 µM (inactive) | > 100 µM (inactive) | > 100 µM (inactive) | > 100 µM (inactive) | > 100 µM (inactive) | > 100 µM (inactive) | 97.5 µM (inactive) |  | 
OCCCCn1cc(Cn2ncc3c(O)ncnc32)nn1 | > 100 µM (inactive) | > 100 µM (inactive) | > 100 | > 100 µM (inactive) | > 100 µM (inactive) | > 100 µM (inactive) | > 100 µM (inactive) | > 100 µM (inactive) | > 100 µM (inactive) | > 100 µM (inactive) | > 100 µM (inactive) | > 100 µM (inactive) | > 100 µM (inactive) | > 100 µM (inactive) |  | > 100 µM (inactive) | > 100 µM (inactive) | > 100 µM (inactive) | > 100 µM (inactive) | > 100 µM (inactive)
CS(=O)(=O)CC(=O)c1ccccc1 | > 100 µM (inactive) | > 100 µM (inactive) | > 100 | > 100 µM (inactive) | > 100 µM (inactive) | > 100 µM (inactive) | > 100 µM (inactive) | > 100 µM (inactive) | > 100 µM (inactive) | > 100 µM (inactive) | > 100 µM (inactive) | > 100 µM (inactive) | > 100 µM (inactive) | > 100 µM (inactive) | 38.8 µM (inactive) | > 100 µM (inactive) | > 100 µM (inactive) | > 100 µM (inactive) | > 100 µM (inactive) | 
NC(=O)C(=CNC(N)=S)C(N)=O | > 100 µM (inactive) | > 100 µM (inactive) | > 100 | > 100 µM (inactive) | > 100 µM (inactive) | > 100 µM (inactive) | > 100 µM (inactive) | > 100 µM (inactive) | > 100 µM (inactive) | > 100 µM (inactive) | > 100 µM (inactive) | > 100 µM (inactive) | > 100 µM (inactive) | > 100 µM (inactive) | > 100 µM (inactive) | > 100 µM (inactive) | > 100 µM (inactive) | > 100 µM (inactive) | > 100 µM (inactive) | 
COC(=O)C1CC2C=CC1N(C(=O)OCc1ccccc1)C2 (centres undefined) | 91.4 µM (inactive) | > 100 µM (inactive) | > 100 | > 100 µM (inactive) | > 100 µM (inactive) | 98.2 µM (inactive) | > 100 µM (inactive) | 81.3 µM (inactive) | > 100 µM (inactive) | > 100 µM (inactive) | 0.82 µM (active) | > 100 µM (inactive) | > 100 µM (inactive) | > 100 µM (inactive) | > 100 µM (inactive) | 59.3 µM (inactive) | > 100 µM (inactive) | > 100 µM (inactive) | > 100 µM (inactive) | 
CC1=NN(c2nc(N)nc(-c3cc4ccccc4oc3=N)n2)C(C)(C)C1 | 14.7 µM (inactive) | 19.6 µM (inactive) | 16.1 | 15.3 µM (inactive) | 17.7 µM (inactive) | 27.7 µM (inactive) | 19.7 µM (inactive) | 12.9 µM (inactive) | 14.7 µM (inactive) | 16.1 µM (inactive) | 20.6 µM (inactive) | 22 µM (inactive) | 17.7 µM (inactive) | 18.8 µM (inactive) |  | 19.6 µM (inactive) | 16.7 µM (inactive) | 16.2 µM (inactive) | 15 µM (inactive) | 22.9 µM (inactive)
CC1=NN(C(=O)c2ccccc2O)C(c2ccccc2Cl)C1C(=O)Nc1ccccc1 (centres undefined) | 1.7 µM (inactive) | < 0.0196 µM (active) | 0.0303 | < 0.028 µM (active) | 0.107 µM (active) | 0.0387 µM (active) | < 0.0195 µM (active) | < 0.0302 µM (active) | 0.0614 µM (active) | < 0.0378 µM (active) | 0.119 µM (active) | 0.0458 µM (active) | 0.143 µM (active) | 10.9 µM (inactive) |  | < 0.0322 µM (active) | 0.283 µM (active) | < 0.0197 µM (active) | 2.84 µM (inactive) | > 100 µM (inactive)
Cc1ccc(S(=O)(=O)n2ccc(-c3ccc4ccn(S(=O)(=O)c5ccc(C)cc5)c4c3)c2)cc1 | > 100 µM (inactive) | > 100 µM (inactive) | > 100 | > 100 µM (inactive) | > 100 µM (inactive) | > 100 µM (inactive) | > 100 µM (inactive) | > 100 µM (inactive) | > 100 µM (inactive) | > 100 µM (inactive) | > 100 µM (inactive) | > 100 µM (inactive) | > 100 µM (inactive) | > 100 µM (inactive) | 94.2 µM (inactive) | > 100 µM (inactive) | > 100 µM (inactive) | > 100 µM (inactive) | > 100 µM (inactive) | 
O=C1OC2C=CCC1C2 (centres undefined) | > 100 µM (inactive) | > 100 µM (inactive) | > 100 | > 100 µM (inactive) | > 100 µM (inactive) | > 100 µM (inactive) | > 100 µM (inactive) | > 100 µM (inactive) | > 100 µM (inactive) | > 100 µM (inactive) | > 100 µM (inactive) | > 100 µM (inactive) | > 100 µM (inactive) | > 100 µM (inactive) | > 100 µM (inactive) | > 100 µM (inactive) | > 100 µM (inactive) | > 100 µM (inactive) | > 100 µM (inactive) | 
N/C(=N\O)N/N=C/c1ccc2c(c1)OCO2 | 8.85 µM (inactive) | 21.1 µM (inactive) | 22 | 25 µM (inactive) | 7.55 µM (inactive) | 28.6 µM (inactive) | 31.4 µM (inactive) | 24.8 µM (inactive) | 10.8 µM (inactive) | 27 µM (inactive) | 38.5 µM (inactive) | 6.75 µM (inactive) | 14.2 µM (inactive) | 47.4 µM (inactive) |  | 7.87 µM (inactive) | 39.5 µM (inactive) | 13.5 µM (inactive) | 35.6 µM (inactive) | 20.8 µM (inactive)
COc1ccc(OC)c2c(=O)cc(-c3ccccc3)[nH]c12 | > 100 µM (inactive) | > 100 µM (inactive) | > 100 | > 100 µM (inactive) | > 100 µM (inactive) | > 100 µM (inactive) | > 100 µM (inactive) | > 100 µM (inactive) | > 100 µM (inactive) | > 100 µM (inactive) | 7.45 µM (inactive) | > 100 µM (inactive) | > 100 µM (inactive) | > 100 µM (inactive) | 93.3 µM (inactive) | > 100 µM (inactive) | > 100 µM (inactive) | > 100 µM (inactive) | > 100 µM (inactive) | 
COC(=O)C1Cc2ccc3c(c2C1=O)CCCC3 (centres undefined) | 70.5 µM (inactive) | 39.7 µM (inactive) | 69.5 | > 100 µM (inactive) | > 100 µM (inactive) | 73.6 µM (inactive) | > 100 µM (inactive) | 21.3 µM (inactive) | 92.9 µM (inactive) | 74.5 µM (inactive) | > 100 µM (inactive) | > 100 µM (inactive) | 80.7 µM (inactive) | > 100 µM (inactive) | 89.7 µM (inactive) | 26.7 µM (inactive) | > 100 µM (inactive) | 81.1 µM (inactive) | > 100 µM (inactive) | 
COc1cc(Cc2cc3c(c(C(=O)O)c2Br)OCO3)cc(OC)c1OC | > 100 µM (inactive) | 37 µM (inactive) | 41.6 | > 100 µM (inactive) | 39.9 µM (inactive) | 62.1 µM (inactive) | 49.9 µM (inactive) | 56.8 µM (inactive) | > 100 µM (inactive) | > 100 µM (inactive) |  | 85.3 µM (inactive) | > 100 µM (inactive) | > 100 µM (inactive) | > 100 µM (inactive) | 52.6 µM (inactive) | > 100 µM (inactive) | 33.5 µM (inactive) | > 100 µM (inactive) | 55.5 µM (inactive)
COC(=O)OC[C@H]1O[C@@H](n2cc(C)c(=O)[nH]c2=O)CC1OC(=O)OC (some centres undefined) | > 100 µM (inactive) |  | > 100 | > 100 µM (inactive) | > 100 µM (inactive) | > 100 µM (inactive) | > 100 µM (inactive) | > 100 µM (inactive) | > 100 µM (inactive) | > 100 µM (inactive) | > 100 µM (inactive) | > 100 µM (inactive) | > 100 µM (inactive) | > 100 µM (inactive) | 95.3 µM (inactive) | 61.7 µM (inactive) |  | > 100 µM (inactive) | > 100 µM (inactive) | 
CCOC(=O)CCC(NC(=O)OCc1ccccc1)C(=O)NC(CCC(=O)OCC)C(=O)NC(Cc1ccc([N+](=O)[O-])cc1)C(=O)NC(CCC(=O)OCC)C(=O)NC(CCC(=O)OCC)C(=O)OCC (centres undefined) (Cbz-E(OEt)E(OEt)[Phe(4-NO2)]E(OEt)E(OEt)-OEt; configuration not given here) | > 100 µM (inactive) | > 100 µM (inactive) | > 100 | > 100 µM (inactive) | > 100 µM (inactive) | > 100 µM (inactive) | > 100 µM (inactive) | > 100 µM (inactive) |  | > 100 µM (inactive) | > 100 µM (inactive) | > 100 µM (inactive) |  | > 100 µM (inactive) | > 100 µM (inactive) | > 100 µM (inactive) | > 100 µM (inactive) | > 100 µM (inactive) |  | 
